≈ marks a conversion by molar mass, not a printed value. Calls of active or inactive are those of the source. The rule behind the calls is not given here.
Key:
[1] = system: Staphylococcus aureus; test: Antimicrobial activity against methicillin-susceptible Staphylococcus aureus ATCC 29213 in human monocyte-derived macrophages at 2.5 ug/ml assessed as bacterial viability after 4 hrs; assay type: functional
[2] = system: Staphylococcus aureus; test: Antimicrobial activity against methicillin-susceptible Staphylococcus aureus ATCC 29213 in human monocyte-derived macrophages at 2.5 ug/ml assessed as bacterial viability after 24 hrs; assay type: functional
[3] = system: Staphylococcus aureus; test: Antimicrobial activity against methicillin-susceptible Staphylococcus aureus ATCC 29213 in human monocyte-derived macrophages at 5 ug/ml assessed as bacterial viability after 2 hrs; assay type: functional
[4] = system: Staphylococcus aureus; test: Antimicrobial activity against methicillin-susceptible Staphylococcus aureus ATCC 29213 in human monocyte-derived macrophages at 5 ug/ml assessed as bacterial viability after 4 hrs; assay type: functional
[5] = system: Staphylococcus aureus; test: Antimicrobial activity against methicillin-resistant Staphylococcus aureus ATCC 43300 in human monocyte-derived macrophages at 2.5 ug/ml assessed as bacterial viability after 2 hrs; assay type: functional
[6] = system: Staphylococcus aureus; test: Antimicrobial activity against methicillin-resistant Staphylococcus aureus ATCC 43300 in human monocyte-derived macrophages at 2.5 ug/ml assessed as bacterial viability after 4 hrs; assay type: functional
[7] = system: Staphylococcus aureus; test: Antimicrobial activity against methicillin-resistant Staphylococcus aureus ATCC 43300 in human monocyte-derived macrophages at 2.5 ug/ml assessed as bacterial viability after 24 hrs; assay type: functional
[8] = system: Staphylococcus aureus; test: Antimicrobial activity against methicillin-resistant Staphylococcus aureus ATCC 43300 in human monocyte-derived macrophages at 5 ug/ml assessed as bacterial viability after 2 hrs; assay type: functional
[9] = system: Staphylococcus aureus; test: Antimicrobial activity against methicillin-resistant Staphylococcus aureus ATCC 43300 in human monocyte-derived macrophages at 5 ug/ml assessed as bacterial viability after 4 hrs; assay type: functional
[10] = system: Staphylococcus aureus; test: Antimicrobial activity against methicillin-resistant Staphylococcus aureus ATCC 43300 in human monocyte-derived macrophages at 5 ug/ml assessed as bacterial viability after 24 hrs; assay type: functional
[11] = system: Staphylococcus aureus; test: Antimicrobial activity against methicillin-susceptible Staphylococcus aureus ATCC 29213 in human monocyte-derived macrophages at 0.25 ug/ml assessed as bacterial viability after 2 hrs; assay type: functional
[12] = system: Staphylococcus aureus; test: Antimicrobial activity against methicillin-susceptible Staphylococcus aureus ATCC 29213 in human monocyte-derived macrophages at 0.25 ug/ml assessed as bacterial viability after 4 hrs; assay type: functional
[13] = system: Staphylococcus aureus; test: Antimicrobial activity against methicillin-susceptible Staphylococcus aureus ATCC 29213 in human monocyte-derived macrophages at 0.25 ug/ml assessed as bacterial viability after 24 hrs; assay type: functional
[14] = system: Staphylococcus aureus; test: Antimicrobial activity against methicillin-susceptible Staphylococcus aureus ATCC 29213 in human monocyte-derived macrophages at 0.5 ug/ml assessed as bacterial viability after 2 hrs; assay type: functional
[15] = system: Staphylococcus aureus; test: Antimicrobial activity against methicillin-susceptible Staphylococcus aureus ATCC 29213 in human monocyte-derived macrophages at 0.5 ug/ml assessed as bacterial viability after 4 hrs; assay type: functional
[16] = system: Staphylococcus aureus; test: Antimicrobial activity against methicillin-susceptible Staphylococcus aureus ATCC 29213 in human monocyte-derived macrophages at 0.5 ug/ml assessed as bacterial viability after 24 hrs; assay type: functional
[17] = system: Staphylococcus aureus; test: Antimicrobial activity against methicillin-susceptible Staphylococcus aureus ATCC 29213 in human monocyte-derived macrophages at 2.5 ug/ml assessed as bacterial viability after 2 hrs; assay type: functional
[18] = system: Staphylococcus aureus; test: Antimicrobial activity against methicillin-resistant Staphylococcus aureus ATCC 43300; assay type: functional
[19] = system: Staphylococcus aureus; test: Antimicrobial activity against methicillin-susceptible Staphylococcus aureus ATCC 29213; assay type: functional
[20] = system: Staphylococcus aureus; test: Antimicrobial activity against methicillin-resistant Staphylococcus aureus 8111; assay type: functional
[21] = system: Staphylococcus aureus; test: Antimicrobial activity against methicillin-resistant Staphylococcus aureus ATCC 43300 in human monocyte-derived macrophages at 0.25 ug/ml assessed as bacterial viability after 2 hrs; assay type: functional
[22] = system: Staphylococcus aureus; test: Antimicrobial activity against methicillin-resistant Staphylococcus aureus ATCC 43300 in human monocyte-derived macrophages at 0.25 ug/ml assessed as bacterial viability after 4 hrs; assay type: functional
[23] = system: Staphylococcus aureus; test: Antimicrobial activity against methicillin-resistant Staphylococcus aureus ATCC 43300 in human monocyte-derived macrophages at 0.25 ug/ml assessed as bacterial viability after 24 hrs; assay type: functional
[24] = system: Staphylococcus aureus; test: Antimicrobial activity against methicillin-resistant Staphylococcus aureus ATCC 43300 in human monocyte-derived macrophages at 0.5 ug/ml assessed as bacterial viability after 4 hrs; assay type: functional
[25] = system: Staphylococcus aureus; test: Antimicrobial activity against methicillin-resistant Staphylococcus aureus ATCC 43300 in human monocyte-derived macrophages at 0.5 ug/ml assessed as bacterial viability after 24 hrs; assay type: functional
[26] = system: Staphylococcus aureus; test: Antimicrobial activity against methicillin-susceptible Staphylococcus aureus ATCC 29213 in human monocyte-derived macrophages at 5 ug/ml assessed as bacterial viability after 24 hrs; assay type: functional
[27] = system: Staphylococcus aureus; test: Extracellular killing of Staphylococcus aureus 8111 in MH-2 broth at 0.5 ug/ml assessed as suppression of number of viable bacteria after 24 hrs; assay type: functional, organism-based
[28] = system: Staphylococcus aureus; test: Antimicrobial activity against methicillin-resistant Staphylococcus aureus ATCC 43300 in human monocyte-derived macrophages at 0.5 ug/ml assessed as bacterial viability after 2 hrs; assay type: functional

Compound | log10CFU/ml [1] | log10CFU/ml [2] | log10CFU/ml [3] | log10CFU/ml [4] | log10CFU/ml [5] | log10CFU/ml [6] | log10CFU/ml [7] | log10CFU/ml [8] | log10CFU/ml [9] | log10CFU/ml [10] | log10CFU/ml [11] | log10CFU/ml [12] | log10CFU/ml [13] | log10CFU/ml [14] | log10CFU/ml [15] | log10CFU/ml [16] | MIC [18] [µg/mL] | MIC [19] [µg/mL] | MIC [20] [µg/mL] | log10CFU/ml [21] | further results
CCCCCCCCCC(=O)N[C@@H](Cc1c[nH]c2ccccc12)C(=O)N[C@H](CC(N)=O)C(=O)N[C@@H](CC(=O)O)C(=O)N[C@@H]1C(=O)NCC(=O)N[C@@H](CCCN)C(=O)N[C@@H](CC(=O)O)C(=O)N[C@H](C)C(=O)N[C@@H](CC(=O)O)C(=O)NCC(=O)N[C@H](CO)C(=O)N[C@@H]([C@H](C)CC(=O)O)C(=O)N[C@@H](CC(=O)c2ccccc2N)C(=O)O[C@@H]1C | -1.75 | -0.32 | -2 | -2.05 | -1.35 | -1.48 | -0.83 | -1.52 | -1.8 | -1.06 | 0.57 | 1.84 | 2.02 | -0.59 | 0.76 | 2 | 0.5 (≈ 0.309 µM) | 0.5 (≈ 0.309 µM) | 0.5 (≈ 0.309 µM) | 0.14 | log10CFU/ml [17]: -1.7; log10CFU/ml [22]: 1.27; log10CFU/ml [23]: 2.1; log10CFU/ml [24]: 0; log10CFU/ml [25]: 1.93; log10CFU/ml [26]: -0.52; Activity [27]: Active
Cc1onc(-c2ccccc2)c1C(=O)N[C@@H]1C(=O)N2[C@@H]1SC(C)(C)[C@@H]2C(=O)O [OXACILLIN] | -2.05 | -2.7 | -0.91 | -1.72 | -0.94 | -1.32 | -2.7 | -1.27 | -1.75 | -3 | 0.21 | -0.05 | -1.47 | -0.48 | -1.51 | -1.54 | 16 (≈ 39.9 µM) | 0.5 (≈ 1.25 µM) | 64 (≈ 159 µM) | -0.85 | log10CFU/ml [23]: -1.02; log10CFU/ml [28]: -0.85; log10CFU/ml [24]: -1.35; log10CFU/ml [25]: -2.52; log10CFU/ml [26]: -2.7
CO[C@H]1/C=C/O[C@@]2(C)Oc3c(C)c(O)c4c(O)c(c(/C=N/N5CCN(C)CC5)c(O)c4c3C2=O)NC(=O)/C(C)=C\C=C\[C@H](C)[C@H](O)[C@@H](C)[C@@H](O)[C@@H](C)[C@H](OC(C)=O)[C@@H]1C [RIFAMPIN] | – | – | – | – | – | – | – | – | – | – | – | – | – | – | – | – | 0.015 (≈ 0.0182 µM) | 0.015 (≈ 0.0182 µM) | 0.015 (≈ 0.0182 µM) | – | –
CN[C@H](CC(C)C)C(=O)N[C@H]1C(=O)N[C@@H](CC(N)=O)C(=O)N[C@H]2C(=O)N[C@H]3C(=O)N[C@H](C(=O)N[C@H](C(=O)O)c4cc(O)cc(O)c4-c4cc3ccc4O)[C@H](O)c3ccc(c(Cl)c3)Oc3cc2cc(c3O[C@@H]2O[C@H](CO)[C@@H](O)[C@H](O)[C@H]2O[C@H]2C[C@](C)(N)[C@H](O)[C@H](C)O2)Oc2ccc(cc2Cl)[C@H]1O [VANCOMYCIN] | -1.07 | -0.46 | -0.85 | -1.14 | -0.38 | -0.88 | -1.6 | -0.51 | -0.84 | -1.62 | 0.98 | 2.14 | 2.17 | 0.51 | 1.85 | 2.17 | – | – | – | 0.6 | log10CFU/ml [17]: -0.86; log10CFU/ml [22]: 1.58; log10CFU/ml [23]: 2.47; log10CFU/ml [28]: -0.39; log10CFU/ml [24]: 0.03; log10CFU/ml [25]: 2.23; log10CFU/ml [26]: -0.85
GENTAMICIN | – | – | – | – | – | – | – | – | – | – | – | – | – | – | – | – | 128 | 1 | 2 | – | –
